# Measurements from patent US20060229302A1, “Tricyclic indole derivatives and their use in the treatment of alzheimer's disease” (priority 2003, published 2006).
# Structures can show the parent of a compound that is named as a salt.
# Molecular target: Asp-2 (Homo sapiens, UniProt P56817)
# Assay: Asp-2 inhibitory assay
# Format: biochemical
# Settings: FAM-[[…]]-TAMRA substrate, pH 4.5, 1 h room temperature; read-out: inhibition in the Asp-2 inhibitory assay
# Description: (I) Asp-2 Inhibitory Assay
# For each compound being assayed, in a 384 well plate, is added:
# This is prepared by diluting 2 ml of a 2 mM DMSO solution of the substrate into 400 ml of buffer (100 mM Sodium acetate pH=4.5, 1 l Milli-Q water, 0.06% Triton X-100 (0.5 ml/l), pH adjusted to 4.5 using glacial acetic acid).
# c) 10 μl enzyme solution. This is prepared by diluting 16 ml of a 500 nM enzyme solution into 384 ml of buffer (prepared as above).
# Blank wells (enzyme solution replaced by buffer) are included as controls on each plate.
# Sequence of Asp-2 (P56817 46-501): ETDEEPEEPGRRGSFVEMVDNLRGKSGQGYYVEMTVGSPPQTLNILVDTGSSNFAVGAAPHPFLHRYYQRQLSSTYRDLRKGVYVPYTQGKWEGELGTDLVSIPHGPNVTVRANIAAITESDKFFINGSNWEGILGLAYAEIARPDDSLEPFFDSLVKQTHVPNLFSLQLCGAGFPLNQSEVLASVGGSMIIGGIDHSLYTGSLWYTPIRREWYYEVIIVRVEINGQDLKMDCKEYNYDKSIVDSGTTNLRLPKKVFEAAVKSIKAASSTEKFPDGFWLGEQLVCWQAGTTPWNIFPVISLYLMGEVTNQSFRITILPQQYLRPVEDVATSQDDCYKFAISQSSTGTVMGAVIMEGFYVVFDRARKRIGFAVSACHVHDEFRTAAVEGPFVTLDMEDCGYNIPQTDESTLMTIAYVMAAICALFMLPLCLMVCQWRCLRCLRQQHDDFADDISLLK
row,IC50,Compound
1,< 1000 nM,"CCc1cn2c3c(cc(C(=O)N[C@@H](Cc4ccccc4)[C@H](O)CNC(C)(C)c4cccc(C(F)(F)F)c4)cc13)N(C)S(=O)(=O)C2 [Example E79, 6-Ethyl-N-[(1S,2R)-2-hydroxy-3-({1-methyl-1-[3-(trifluoromethyl)phenyl]ethyl}amino)-1-(phenylmethyl)propyl]-1-methyl-1H-[1,2,5]thiadiazino[3,4,5-hi]indole-8-carboxamide 2,2-dioxide formate salt]"
2,< 1000 nM,"CCc1cn2c3c(cc(C(=O)N[C@@H](Cc4ccccc4)[C@H](O)CNCc4cccc(C(F)(F)F)c4)cc13)N(C)S(=O)(=O)C2 [Example E83, 6-Ethyl-N-[(1S,2R)-2-hydroxy-1-(phenylmethyl)-3-({[3-(trifluoromethyl)phenyl]methyl}amino)propyl]-1-methyl-1H-[1,2,5]thiadiazino[3,4,5-hi]indole-8-carboxamide 2,2-dioxide formate salt]"
3,< 1000 nM,"CCc1cn2c3c(cc(C(=O)N[C@@H](Cc4ccccc4)[C@H](O)CNCc4cncc(C(=O)NC)c4)cc13)N(C)S(=O)(=O)CC2 [Example E97, 7-Ethyl-N-[(1S,2R)-2 hydroxy-3-[({5-[(methylamino)carbonyl]-3-pyridinyl}methyl)amino]-1-(phenylmethyl)propyl]-1-methyl-3,4-dihydro-1H-[1,2,5]thiadiazepino[3,4,5-hi]indole-9-carboxamide 2,2-dioxide formate salt]"
4,< 1000 nM,"CCc1cc(CNC[C@@H](O)[C@H](Cc2ccccc2)NC(=O)c2cc3c4c(c2)c(CC)cn4CCS(=O)(=O)N3C)on1 [Example E104, 7-Ethyl-N-[(1S,2R)-3-{[(3-ethyl-5-isoxazolyl)methyl]amino}-2-hydroxy-1-(phenylmethyl)propyl]-1-methyl-3,4-dihydro-1H-[1,2,5]thiadiazepino[3,4,5-hi]indole-9-carboxamide 2,2-dioxide]"
5,< 1000 nM,"CCc1cn2c3c(cc(C(=O)N[C@@H](Cc4ccccc4)[C@H](O)CN[C@@H](C)C(=O)NC4CCCCC4)cc13)N(C)S(=O)(=O)CC2 [Example E105, N-[(1S,2R)-3-{[(1S)-2-(Cyclohexylamino)-1-methyl-2-oxoethyl]amino}-2-hydroxy-1-(phenylmethyl)propyl]-7-ethyl-1-methyl-3,4-dihydro-1H-[1,2,5]thiadiazepino[3,4,5-hi]indole-9-carboxamide 2,2-dioxide]"
6,< 1000 nM,"CCc1cn2c3c(cc(C(=O)N[C@@H](Cc4ccccc4)[C@H](O)CNC4CCC(F)(F)CC4)cc13)N(C)S(=O)(=O)CC2 [Example E106, N-[(1S,2R)-3-[(4,4-Difluorocyclohexyl)amino]-2-hydroxy-1-(phenylmethyl)propyl]-7-ethyl-1-methyl-3,4-dihydro-1H-[1,2,5]thiadiazepino[3,4,5-hi]indole-9-carboxamide 2,2-dioxide formate salt]"

# The next lines start with the compound.
row,Compound,IC50
1,"CCc1cn2c3c(cc(C(=O)N[C@@H](Cc4ccccc4)[C@H](O)CNCc4cccc(OC(F)(F)F)c4)cc13)N(C)S(=O)(=O)CC2 [Example E67, 7-Ethyl-N-{(1S,2R)-2-hydroxy-1-(phenylmethyl)-3-[({3-[(trifluoromethyl)oxy]phenyl}methyl)amino]propyl}-1-methyl 3,4-dihydro-1H-[1,2,5]thiadiazepino[3,4,5-hi]indole-9-carboxamide 2,2-dioxide formate salt]",< 1000 nM
2,"CCc1cn2c3c(cc(C(=O)N[C@@H](Cc4ccccc4)[C@H](O)CNCc4cccc(C)c4)cc13)N(C)S(=O)(=O)CC2 [Example E70, 7-Ethyl-N-[(1S,2R)-2-hydroxy-3-{[(3-methylphenyl)methyl]amino}-1-(phenylmethyl)propyl]-1-methyl-3,4-dihydro-1H-[1,2,5]thiadiazepino[3,4,5-hi]indole-9-carboxamide 2,2-dioxide formate salt]",< 1000 nM
3,"CCc1cn2c3c(cc(C(=O)N[C@@H](Cc4ccccc4)[C@H](O)CN[C@H]4CCc5ccccc54)cc13)N(C)S(=O)(=O)CC2 [Example E72, N-[(1S,2R)-3-[(1S)-2,3-Dihydro-1H-inden-1-ylamino]-2-hydroxy-1-(phenylmethyl)propyl]-7-ethyl-1-methyl-3,4-dihydro-1H-[1,2,5]thiadiazepino[3,4,5-hi]indole-9-carboxamide 2,2-dioxide formate salt]",< 1000 nM
4,"CCc1cn2c3c(cc(C(=O)N[C@@H](Cc4ccccc4)[C@H](O)CNCc4cnn(CC(F)(F)F)c4)cc13)N(C)S(=O)(=O)CC2 [Example E74, 7-Ethyl-N-[(1S,2R)-2-hydroxy-1-(phenylmethyl)-3-({[1-(2,2,2-trifluoroethyl)-1H-pyrazol-4-yl]methyl}amino)propyl]-1-methyl-3,4-dihydro-1H-[1,2,5]thiadiazepino[3,4,5-hi]indole-9-carboxamide 2,2-dioxide formate salt]",< 1000 nM
5,"CCc1cn2c3c(cc(C(=O)N[C@@H](Cc4ccccc4)[C@H](O)CNCc4cccc(C(F)(F)F)c4)cc13)N(C)S(=O)(=O)C2C (stereo partly drawn) [Example E78, 6-Ethyl-N-[(1S,2R)-2-hydroxy-1-(phenylmethyl)-3-({[3-(trifluoromethyl)phenyl]methyl}amino)propyl]-1,3dimethyl-1H-[1,2,5]thiadiazino[3,4,5-hi]indole-8-carboxamide 2,2-dioxide formate salt]",< 1000 nM
